# Results published in US9999222B2, “Herbicidal combination comprising azines” (BASF SE, priority 2014, dated 2018).
# Where two headings read alike, the source gives them in different places.
# Legend:
# Test in all cases: Greenhouse test, pre-emergence treatment
# ABUTH = type: in vivo, Abutilon theophrasti; conditions: Abutilon theophrasti, 480 h, read-out: observed % activity 20 DAT
# Procedure, shortened: (§1)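 Seeds were sown in loamy sand with approximately 3.0% humus, then sprayed at once with actives suspended or emulsified in water. Pots were watered, hooded until rooting, held at 10-25° C. or 20-35° C. by species for 2 to 4 weeks, and scored 0 (no damage) to 100 (no emergence/complete destruction).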
# ELEIN = type: in vivo, Eleusine indica
# From the text: The culture containers used were plastic flowerpots containing loamy sand with approximately 3.0% of humus as the substrate. The seeds of the test plants were sown separately for each species.
# For the pre-emergence treatment, the active ingredients, which had been suspended or emulsified in water, were applied directly after sowing by means of finely distributing nozzles. The containers were irrigated gently to promote germination and growth and subsequently covered with transparent plastic hoods until the plants had rooted. This cover caused uniform germination of the test plants, unless this had been impaired by the active ingredients.
# Depending on the species, the plants were kept at 10-25° C. or 20-35° C., respectively.
# The test period extended over 2 to 4 weeks. During this time, the plants were tended, and their response to the individual treatments was evaluated.
# Evaluation was carried out using a scale from 0 to 100. 100 means no emergence of the plants, or complete destruction of at least the aerial moieties, and 0 means no damage, or normal course of growth. A moderate herbicidal activity is given at values of at least 60, a good herbicidal activity is given at values of at least 70, and a very good herbicidal activity is given at values of at least 85.
# The respective stated components a and b, and if appropriate, c were formulated as a 10% by weight strength emulsion concentrate and, with addition of the amount of solvent system, introduced into the spray liquor used for applying the active compound.
# In the examples, the solvent used was water.
# In the examples below, using the method of S. R. Colby (1967) “Calculating synergistic and antagonistic responses of herbicide combinations”, Weeds 15, p. 22ff., the value E, which is expected if the activity of the individual active compounds is only additive, was calculated. E=X+Y−(X·Y/100) where • X=percent activity using active compound a at an application rate A; • Y=percent activity using active compound b at an application rate B; • E=expected activity (in %) by a+b at application rates A+B.
# If the value found experimentally is higher than the value E calculated according to Colby, a synergistic effect is present.
# SIDRH = type: in vivo, Sida rhombifolia; conditions: pre-emergence
# Procedure, shortened: as §1
# CENCY [1] = type: in vivo, Centaurea cyanus
# CENCY [2] = type: in vivo
# CENCY [3] = type: in vivo; conditions: individual
# ERICA [4] = type: in vivo, Erigeron canadensis
# ERICA [5] = type: in vivo; conditions: 480 h, read-out: observed % activity 20 DAT
# DIGSA [6] = type: in vivo, Digitaria sanguinalis; conditions: 4 g ai/ha
# DIGSA [7] = type: in vivo; conditions: Digitaria sanguinalis, 480 h, read-out: observed % activity 20 DAT
# [8] = Sida rhombifolia, 480 h, 8 g ai/ha, read-out: observed % activity 20 DAT
structure (smiles),measurement,setting,value
"Nc1nc(Nc2c(F)c(F)cc(F)c2F)nc(C2(F)CCCC2)n1 [compound 9, 6-(1-fluorocyclopentyl)-N4-(2,3,5,6-tetrafluorophenyl)-1,3,5-triazine-2,4-diamine]",pest or weed control at 4 g/ha,ABUTH; 4 g ai/ha,55%
same,inhibition at 8 g/ha,ABUTH; 8 g ai/ha,20%
same,pest or weed control at 8 g/ha,ABUTH; 8 g ai/ha,40%
same,inhibition at 16 g/ha,ABUTH; 16 g ai/ha,20%
same,inhibition at 8 g/ha,"ABUTH; ABUTH, individual, use rate 8 g ai/ha",20%
same,inhibition at 16 g/ha,"ABUTH; ABUTH, individual, use rate 16 g ai/ha",20%
same,observed % activity 20 DAT,ELEIN; 2 g ai/ha,95%
same,inhibition at 2 g/ha,"ELEIN; Eleusine indica, 480 h, 2 g ai/ha, read-out: observed % activity 20 DAT",95%
same,inhibition at 4 g/ha,"ELEIN; Eleusine indica, 480 h, 4 g ai/ha, read-out: observed % activity 20 DAT",98%
same,observed % activity 20 DAT,"SIDRH; SIDRH, individual, use rate 8 g ai/ha",15%
same,observed % activity 20 DAT,"SIDRH; SIDRH, individual, use rate 16 g ai/ha",55%
same,pest or weed control at 4 g/ha,"SIDRH; Sida rhombifolia, 480 h, 4 g ai/ha, read-out: observed % activity 20 DAT",10%
same,pest or weed control at 8 g/ha,SIDRH; [8],10%
same,inhibition at 8 g/ha,"SIDRH; Sida rhombifolia, 480 h, SIDRH, individual, use rate 8 g ai/ha, read-out: observed % activity 20 DAT",25%
same,inhibition at 8 g/ha,SIDRH; [8],25%
same,inhibition at 16 g/ha,"SIDRH; Sida rhombifolia, 480 h, 16 g ai/ha, read-out: observed % activity 20 DAT",30%
same,observed % activity 20 DAT,CENCY [1]; 4 g ai/ha,40%
same,observed % activity 20 DAT,CENCY [1]; 8 g ai/ha,20%
same,observed % activity 20 DAT,CENCY [2]; 8 g ai/ha,35%
same,inhibition at 4 g/ha,"CENCY [2]; 480 h, 4 g ai/ha, read-out: observed % activity 20 DAT",40%
same,inhibition at 8 g/ha,"CENCY [2]; 480 h, 8 g ai/ha, read-out: observed % activity 20 DAT",20%
same,inhibition at 16 g/ha,"CENCY [2]; 480 h, 16 g ai/ha, read-out: observed % activity 20 DAT",10%
same,inhibition at 8 g/ha,"CENCY [3]; 480 h, use rate 8 g ai/ha, read-out: observed % activity 20 DAT",20%
same,inhibition at 16 g/ha,"CENCY [3]; 480 h, use rate 16 g ai/ha, read-out: observed % activity 20 DAT",15%
same,observed % activity 20 DAT,CENCY [3]; use rate 8 g ai/ha,35%
same,observed % activity 20 DAT,ERICA [4]; 4 g ai/ha,98%
same,observed % activity 20 DAT,ERICA [4]; 8 g ai/ha,98%
same,inhibition at 4 g/ha,ERICA [5]; 4 g ai/ha,98%
same,inhibition at 8 g/ha,ERICA [5]; 8 g ai/ha,98%
same,observed % activity 20 DAT,DIGSA [6],80%
same,inhibition at 2 g/ha,DIGSA [7]; 2 g ai/ha,75%
same,inhibition at 4 g/ha,DIGSA [7]; 4 g ai/ha,60%
